Data on one compound can be found in patent US20130202629A1, “USES OF PHOSPHOLIPID CONJUGATES OF SYNTHETIC TLR7 AGONISTS” (The Regents of the University of California, priority 2010, published 2013).

Assay [1] concerns the target T1, TLR7 (Homo sapiens, UniProt Q9NYK1).
T1 sequence (Q9NYK1 27-1049): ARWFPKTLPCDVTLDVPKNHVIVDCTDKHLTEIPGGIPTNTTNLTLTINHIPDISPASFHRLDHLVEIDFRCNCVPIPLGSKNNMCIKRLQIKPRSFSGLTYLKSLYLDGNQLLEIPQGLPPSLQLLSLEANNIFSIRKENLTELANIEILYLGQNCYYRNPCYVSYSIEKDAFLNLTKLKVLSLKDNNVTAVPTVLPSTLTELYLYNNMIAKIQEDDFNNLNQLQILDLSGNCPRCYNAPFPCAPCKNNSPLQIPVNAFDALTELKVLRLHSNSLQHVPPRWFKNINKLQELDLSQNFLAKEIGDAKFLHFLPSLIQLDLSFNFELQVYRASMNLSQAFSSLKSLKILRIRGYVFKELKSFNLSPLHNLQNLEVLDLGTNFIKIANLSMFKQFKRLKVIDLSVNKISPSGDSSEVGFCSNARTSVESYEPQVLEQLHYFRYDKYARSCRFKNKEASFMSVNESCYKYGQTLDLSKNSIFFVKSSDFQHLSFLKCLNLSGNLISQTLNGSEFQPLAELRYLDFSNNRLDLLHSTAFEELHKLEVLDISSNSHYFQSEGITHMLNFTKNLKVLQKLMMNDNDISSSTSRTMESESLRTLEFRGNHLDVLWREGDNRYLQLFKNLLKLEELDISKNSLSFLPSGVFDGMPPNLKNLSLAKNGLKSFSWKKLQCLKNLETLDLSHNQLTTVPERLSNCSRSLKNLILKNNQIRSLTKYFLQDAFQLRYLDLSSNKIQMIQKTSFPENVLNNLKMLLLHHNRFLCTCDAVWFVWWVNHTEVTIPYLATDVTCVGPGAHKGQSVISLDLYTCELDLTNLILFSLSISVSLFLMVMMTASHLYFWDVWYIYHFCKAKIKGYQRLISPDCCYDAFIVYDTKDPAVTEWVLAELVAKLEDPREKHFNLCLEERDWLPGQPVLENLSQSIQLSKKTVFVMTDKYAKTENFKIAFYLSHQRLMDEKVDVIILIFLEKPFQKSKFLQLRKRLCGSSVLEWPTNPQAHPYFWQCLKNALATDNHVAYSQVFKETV
Nature of the assay: Cytokine induction (IL-6, IFNalpha1; Luminex) in human PBMC. It is filed as cell-based. As to conditions: 18 hours, IL-6 (FIG. 3A).

Assay [2] deals with Anthrax Sterne strain spores. The class given is in vivo, Bacillus anthracis.
Assay [3] deals with A/J mice. Kind of assay: Local (BALF) and systemic cytokine induction after intranasal administration. It is filed as in vivo, mouse. The method, then:
1V270 induces local inflammation by pulmonary administration. To study the ability of phospholipid conjugated TLR7 to initiate the local inflammation, 6 to 8-week old female A/J mice were intranasally administered with 1V270 (0.5, 1, 2 or 4 nmol per animal) in 5% DMSO in PBS. Mice were sacrificed two hours after the administration and serum and bronchial lavage fluid (BALF) were collected. The levels of IL-6, IL-12 and TNFα were determined by Luminex beads assay.
A/J mice received 10 nmol/animal 1V270 intranasally and BALF were collected 24, 48, and 72 hours after the administration. 1V270 could induce IL-12 and TNFα up to 48 hours (FIG. 10).
BALF and plasma were collected 24 hours later and cytokine levels determined by multiplex luminex assay.

SMILES strings stand for the structures. Where “and” joins values, the source holds several entries; their conditions need not be identical. Equal entries are not always repeated.

Regarding `CCCCCCCC/C=C\CCCCCCCC(=O)OCC(COP(=O)(O)OCCNC(=O)c1ccc(Cn2c(=O)[nH]c3c(N)nc(OCCOC)nc32)cc1)OC(=O)CCCCCCC/C=C\CCCCCCCC` (centres unmarked) [Compound 6, 2-(4-((6-amino-2-(2-methoxyethoxy)-8-oxo-7H-purin-9(8H)-yl)methyl)benzamido)ethyl 2,3-bis(oleoyloxy)propyl phosphate], in assay [1], the “order of TLR7 conjugate potency” value is “(4b)>(6)>(9)>/=SM>(8) and 4b>6>9>SM=8”. Moreover, the “survival on day 30, long term experiment” value in assay [2] (IRS mixed with 1 nmol, i.n. three times at two week intervals, challenge four weeks later) is 100%. In addition, the “survival on day 15, short term experiment” value in assay [2] (IRS with 1 nmol, single vaccination, challenge six days later) was “More than half”. Further, the “effective dose, unformulated in DMSO” value in assay [2] (adjuvant with IRS) is 1 nmol. The “efficacy compared with cholera toxin (CT) as adjuvant” value in assay [2] (in vivo) was “slightly more effective than mice that received CT as an adjuvant”. In addition, in assay [2] (mucosal immunization with killed anthrax spores), the “protection from pulmonary anthrax infection” value was “completely protected mice from pulmonary anthrax infection”. In assay [2] (splenocytes of surviving mice cultured with IRS for 5 days), the “spore-specific cellular immune responses” value was “induced spore-specific Th1 and Th17 cellular immune responses”. Also, the “persistence of IL-12 and TNFα induction in BALF” value in assay [3] (i.n. 10 nmol/animal) was “up to 48 hours”. Besides, the “local proinflammatory cytokines (IL-6, IL-12, TNFα) in BALF” value in assay [3] (i.n. 2 to 4 nmol in 5% DMSO in PBS, two hours after administration) is “induced local proinflammatory cytokines in the BALF”. In addition, the “localized versus systemic cytokine release” value in assay [3] (i.n., BALF and plasma 24 hours later) is on record as “promoted localized cytokine release with minimal systemic side effects”. The “BALF cytokine levels compared with serum” value in assay [3] (i.n., two hours after administration) is given as “higher than those in the serum”.
